The term Ki denotes a dissociation constant, usually derived from enzyme kinetics or from competition with a known ligand.

This assay concerns the target T1, glucocorticoid receptor (Homo sapiens, UniProt P04150).
T1 construct: endogenous in cells
T1 sequence (P04150 1-777): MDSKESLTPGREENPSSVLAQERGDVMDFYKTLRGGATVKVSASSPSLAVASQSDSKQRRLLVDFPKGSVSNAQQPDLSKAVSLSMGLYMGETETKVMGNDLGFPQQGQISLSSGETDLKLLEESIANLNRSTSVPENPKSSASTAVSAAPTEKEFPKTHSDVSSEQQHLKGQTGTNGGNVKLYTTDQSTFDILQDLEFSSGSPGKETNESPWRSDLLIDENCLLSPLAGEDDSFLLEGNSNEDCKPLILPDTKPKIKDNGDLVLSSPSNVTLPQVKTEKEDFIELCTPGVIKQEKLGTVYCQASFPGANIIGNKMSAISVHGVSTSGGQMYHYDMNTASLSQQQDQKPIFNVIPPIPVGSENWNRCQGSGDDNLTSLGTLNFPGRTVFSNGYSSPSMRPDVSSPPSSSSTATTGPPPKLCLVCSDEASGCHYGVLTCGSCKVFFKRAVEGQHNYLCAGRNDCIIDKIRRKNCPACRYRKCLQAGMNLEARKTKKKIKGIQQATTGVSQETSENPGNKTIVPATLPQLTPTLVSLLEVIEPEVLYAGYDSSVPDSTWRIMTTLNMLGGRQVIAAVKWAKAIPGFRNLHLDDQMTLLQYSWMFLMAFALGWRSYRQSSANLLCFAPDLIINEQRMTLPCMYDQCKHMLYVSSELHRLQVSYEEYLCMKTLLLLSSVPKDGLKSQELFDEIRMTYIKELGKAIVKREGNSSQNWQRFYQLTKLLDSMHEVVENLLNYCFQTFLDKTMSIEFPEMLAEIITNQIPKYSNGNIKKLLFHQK
Kind of assay: Ligand binding assay (GR BIND). On the procedure: • Materials: • Binding Buffer: TEGM (10 mM Tris-HCl, 1 mM EDTA, 10% glycerol, 1 mM beta-mecaptoethanol, 10 mM Sodium Molybdate, pH 7.2) • 50% HAP Slurry: Calbiochem Hydroxylapatite, Fast Flow, in 10 mM Tris, pH 8.0 and 1 mM EDTA. • Wash Buffer: 40 mM Tris, pH7.5, 100 mM KCl, 1 mM EDTA and 1 mM EGTA.
Phenol red-free Trypsin-EDTA is diluted in the same PBS1:10. The cell layers are rinsed with 1× Trypsin, extra Trypsin is poured out, and the cell layers are incubated at 37° C. for ˜2 min. The flask is tapped and checked for signs of cell detachment. Once the cells begin to slide off the flask, the complete media is added. The cells are counted at this point, then diluted to the appropriate concentration and split into flasks or dishes for further culturing (Usually 1:3 to 1:6 dilution).
When the cells are 70 to 85% confluent, they are detached as described above, and collected by centrifuging at 1000 g for 10 minutes at 4° C. The cell pellet is washed twice with TEGM (10 mM Tris-HCl, 1 mM EDTA, 10% glycerol, 1 mM beta-mercaptoethanol, 10 mM Sodium Molybdate, pH 7.2). After the final wash, the cells are resuspended in TEGM at a concentration of 10^7 cells/mL. The cell suspension is snap frozen in liquid nitrogen or ethanol/dry ice bath and transferred to −80° C. freezer on dry ice. Before setting up the binding assay, the frozen samples are left on ice-water to just thaw (˜1 hr). Then the samples are centrifuged at 12,500 g to 20,000 g for 30 min at 4° C. The supernatant is used to set-up assay right away. If using 50 μL of supernatant, the test compound can be prepared in 50 μL of the TEGM buffer.
1×TEGM buffer is prepared, and the isotope-containing assay mixture is prepared in the following order: EtOH (2% final concentration in reaction), 3H-DEX (Amersham Biosciences) and 1×TEGM. [e.g. For 100 samples, 200 μL (100×2) of EtOH+4.25 μL of 1:10 ^3H—Dex stock+2300 μL (100×23) 1×TEGM]. The compound is serially diluted, e.g., if starting final conc. is 1 μM, and the compound is in 25 μL of solution, for duplicate samples, 75 μL of 4×1 μM solution is made and 3 μL of 100 μM is added to 72 μL of buffer, and 1:5 serial dilution.
25 μL of ^3H-DEX (6 nM) trace and 25 μL compound solution are first mixed together, followed by addition of 50 μL receptor solution. The reaction is gently mixed, spun briefly at about 200 rpm and incubated at 4° C. overnight. 100 μL of 50% HAP slurry is prepared and added to the incubated reaction which is then vortexed and incubated on ice for 5 to 10 minutes. The reaction mixture is vortexed twice more to resuspend HAP while incubating reaction. The samples in 96-well format are then washed in wash buffer using The FilterMate™ Universal Harvester plate washer (Packard). The washing process transfers HAP pellet containing ligand-bound expressed receptor to Unifilter-96 GF/B filter plate (Packard). The HAP pellet on the filter plate is incubated with 50 μL of MICROSCINT (Packard) scintillint for 30 minutes before being counted on the TopCount microscintillation counter (Packard). […] are calculated using DEX as a reference.

Take `C[C@]12Cc3cnn(-c4ccc(F)cc4)c3C=C1CC[C@@H]2CN(CCc1ccccc1O)S(=O)(=O)Cc1cccc(C(F)(F)F)c1` [Example 122, N-{[(4αR,5S)-1-(4-fluorophenyl)-4α-methyl-1,4,4α,5,6,7-hexahydrocyclopenta[f]indazol-5-yl]methyl}-N-[2-(2-hydroxyphenyl)ethyl]-1-[3-(trifluoromethyl)phenyl]methanesulfonamide]: the affinity, expressed as Ki, was 2.9 nM.

Compound `Cc1noc(C)c1S(=O)(=O)N(CCc1ccccc1O)C[C@H]1CCC2=Cc3c(cnn3-c3ccc(F)cc3)C[C@@]21C` [Example 123, N-{[(4αR,5S)-1-(4-fluorophenyl)-4α-methyl-1,4,4α,5,6,7-hexahydrocyclopenta[f]indazol-5-yl]methyl}-N-[2-(2-hydroxyphenyl)ethyl]-3,5-dimethylisoxazole-4-sulfonamide] yielded a Ki of 0.9 nM. Compared with the last compound, the Ki is about 3.2-fold lower.

On to `C[C@]12Cc3cnn(-c4ccc(F)cc4)c3C=C1CC[C@@H]2CN(CCc1ccccc1F)S(=O)(=O)Cc1cccnc1` [Example 124, N-[2-(2-fluorophenyl)ethyl]-N-{[(4αR,5S)-1-(4-fluorophenyl)-4α-methyl-1,4,4α,5,6,7-hexahydrocyclopenta[f]indazol-5-yl]methyl}-1-pyridin-3-ylmethanesulfonamide], for which the Ki is 0.7 nM.

In the case of `COc1ccccc1CCN(C[C@H]1CCC2=Cc3c(cnn3-c3ccc(F)cc3)C[C@@]21C)S(=O)(=O)Cc1cccnc1` [Example 125, N-{[(4αR,5S)-1-(4-fluorophenyl)-4α-methyl-1,4,4α,5,6,7-hexahydrocyclopenta[f]indazol-5-yl]methyl}-N-[2-(2-methoxyphenyl)ethyl]-1-pyridin-3-ylmethanesulfonamide], the Ki is 1 nM.

`COc1cccc(CCN(C[C@H]2CCC3=Cc4c(cnn4-c4ccc(F)cc4)C[C@@]32C)S(=O)(=O)CC(F)(F)F)c1` [Example 126, 2,2,2-trifluoro-N-{[(4αR,5S)-1-(4-fluorophenyl)-4α-methyl-1,4,4α,5,6,7-hexahydrocyclopenta[f]indazol-5-yl]methyl}-N-[2-(3-methoxyphenyl)ethyl]ethanesulfonamide]: the Ki worked out at 0.9 nM. This Ki and that of the compound before are within 1.5-fold of each other.

Turning to `COc1ccc(CCN(C[C@H]2CCC3=Cc4c(cnn4-c4ccc(F)cc4)C[C@@]32C)S(=O)(=O)CC(F)(F)F)cc1` [Example 127, 2,2,2-trifluoro-N-{[(4αR,5S)-1-(4-fluorophenyl)-4α-methyl-1,4,4α,5,6,7-hexahydrocyclopenta[f]indazol-5-yl]methyl}-N-[2-(4-methoxyphenyl)ethyl]ethanesulfonamide], the Ki is 1.1 nM. This Ki and that of the compound before are within 1.5-fold of each other.

In turn, `C[C@]12Cc3cnn(-c4ccc(F)cc4)c3C=C1CC[C@@H]2CN(CCc1ccccn1)S(=O)(=O)CC(F)(F)F` [Example 128, 2,2,2-trifluoro-N-{[(4αR,5S)-1-(4-fluorophenyl)-4α-methyl-1,4,4α,5,6,7-hexahydrocyclopenta[f]indazol-5-yl]methyl}-N-(2-pyridin-2-ylethyl)ethanesulfonamide] returned a Ki of 0.8 nM. The Ki values of the last two compounds are within 1.5-fold of each other.

For the compound `C[C@]12Cc3cnn(-c4ccc(F)cc4)c3C=C1CC[C@@H]2CN(CCc1ccncc1)S(=O)(=O)CC(F)(F)F` [Example 129, 2,2,2-trifluoro-N-{[(4αR,5S)-1-(4-fluorophenyl)-4α-methyl-1,4,4α,5,6,7-hexahydrocyclopenta[f]indazol-5-yl]methyl}-N-(2-pyridin-4-ylethyl)ethanesulfonamide], the Ki came to 1.9 nM.

`C[C@]12Cc3cnn(-c4ccc(F)cc4)c3C=C1CC[C@@H]2CN(CCc1ccc(O)cc1)S(=O)(=O)CC(F)(F)F` [Example 130, 2,2,2-trifluoro-N-{[(4αR,5S)-1-(4-fluorophenyl)-4α-methyl-1,4,4α,5,6,7-hexahydrocyclopenta[f]indazol-5-yl]methyl}-N-[2-(4-hydroxyphenyl)ethyl]ethanesulfonamide] showed a Ki of 1.8 nM.

Turning to `C[C@]12Cc3cnn(-c4ccc(F)cc4)c3C=C1CC[C@@H]2CN(CCc1ccccc1O)S(=O)(=O)Cc1cccnc1` [Example 131, N-{[(4αR,5S)-1-(4-fluorophenyl)-4α-methyl-1,4,4α,5,6,7-hexahydrocyclopenta[f]indazol-5-yl]methyl}-N-[2-(2-hydroxyphenyl)ethyl]-1-pyridin-3-ylmethanesulfonamide], the Ki came out at 1.7 nM. The Ki values of the last two compounds are within 1.5-fold of each other.

`C[C@]12Cc3cnn(-c4ccc(F)cc4)c3C=C1CC[C@@H]2CN(Cc1cccnn1)S(=O)(=O)CC(F)(F)F` [Example 132, 2,2,2-trifluoro-N-{[(4αR,5S)-1-(4-fluorophenyl)-4α-methyl-1,4,4α,5,6,7-hexahydrocyclopenta[f]indazol-5-yl]methyl}-N-(pyridazin-3-ylmethyl)ethanesulfonamide] showed a Ki of 5.5 nM.

On to `C[C@]12Cc3cnn(-c4ccc(F)cc4)c3C=C1CC[C@@H]2CN(CC(O)C(F)F)S(=O)(=O)CC(F)(F)F` (stereo partly drawn) [Example 133, N-(3,3-difluoro-2-hydroxypropyl)-2,2,2-trifluoro-N-{[(4αR,5S)-1-(4-fluorophenyl)-4α-methyl-1,4,4α,5,6,7-hexahydrocyclopenta[f]indazol-5-yl]methyl}ethanesulfonamide], for which the Ki stood at 0.8 nM. This Ki is about 6.9-fold lower than that of the compound before.

`C[C@]12Cc3cnn(-c4ccc(F)cc4)c3C=C1CC[C@@H]2CN(CC(OS(=O)(=O)CC(F)(F)F)C(F)F)S(=O)(=O)CC(F)(F)F` (stereo partly drawn) [Example 134, 2,2-difluoro-1-({{[(4αR,5S)-1-(4-fluorophenyl)-4α-methyl-1,4,4α,5,6,7-hexahydrocyclopenta[f]indazol-5-yl]methyl}[(2,2,2-trifluoroethyl)sulfonyl]amino}methyl)ethyl 2,2,2-trifluoroethanesulfonate] displayed a Ki of 1.8 nM.

On to `C[C@]12Cc3cnn(-c4ccc(F)cc4)c3C=C1CC[C@@H]2CN(CC1(O)CC1)S(=O)(=O)CC(F)(F)F` [Example 135, 2,2,2-trifluoro-N-{[(4αR,5S)-1-(4-fluorophenyl)-4α-methyl-1,4,4α,5,6,7-hexahydrocyclopenta[f]indazol-5-yl]methyl}-N-[(1-hydroxycyclopropyl)methyl]ethanesulfonamide], for which the affinity corresponds to a Ki of 2.9 nM.

`C[C@]12Cc3cnn(-c4ccc(F)cc4)c3C=C1CC[C@@H]2CN(CC1(OS(=O)(=O)CC(F)(F)F)CC1)S(=O)(=O)CC(F)(F)F` [Example 136, 1-({{[(4αR,5S)-1-(4-fluorophenyl)-4α-methyl-1,4,4α,5,6,7-hexahydrocyclopenta[f]indazol-5-yl]methyl}[(2,2,2-trifluoroethyl)sulfonyl]amino}methyl)cyclopropyl 2,2,2-trifluoroethanesulfonate] displayed a Ki of 2.5 nM.

On to `C[C@]12Cc3cnn(-c4ccccc4)c3C=C1CC[C@@H]2CN(CCc1ccccc1F)S(=O)(=O)CC(F)(F)F` [Example 137, 2,2,2-trifluoro-N-[2-(2-fluorophenyl)ethyl]-N-{[(4αR,5S)-4α-methyl-1-phenyl-1,4,4α,5,6,7-hexahydrocyclopenta[f]indazol-5-yl]methyl}ethanesulfonamide], for which the Ki worked out at 0.9 nM.

For the origin of these results see US8299048B2, “Hexahydrocyclopentyl[f]indazole sulfonamides and derivatives thereof as selective glucocorticoid receptor modulators” (Merck Sharp & Dohme Corp., priority 2008, dated 2012).
